In ChEMBL document CHEMBL5634141 (Eur J Med Chem, 2023):
The source made the active and inactive calls. The rule behind the calls is not given here.

Assays:
[1] = tested on: von Hippel-Lindau disease tumor suppressor/GTPase KRas (Homo sapiens), P01116+P40337 [G12C]; test: PROTAC activity at VHL/KRAS G12C mutant in human MIA PaCa-2 cells assessed as induction of protein degradation in presence of AMG510 by Western blotting analysis; assay type: cell-based
[2] = tested on: Calu-1; test: Antiproliferative activity against human Calu-1 cells expressing KRAS G12C mutant assessed as relative cell viability at 30 nM incubated for 72 hrs in presence of infigratinib by CCK-8 assay; assay type: functional; conditions: read-out: Activity
[3] = tested on: NCI-H23; test: Antiproliferative activity against human NCI-H23 cells expressing KRAS G12C mutant assessed as relative cell viability at 30 nM incubated for 72 hrs in presence of infigratinib by CCK-8 assay; assay type: functional; conditions: read-out: Activity
[4] = tested on: NCI-H358; test: Induction of apoptosis in human NCI-H358 cells assessed as late apoptotic cells at 100 nM incubated for 48 hrs by Annexin V-FITC staining based flow cytometry analysis (reference value: 5.20 %); assay type: functional
[5] = Cytotoxicity against HEK293T cells assessed as inhibition of cell growth incubated for 72 hrs by CCK-8 assay; assay type: toxicity, cell-based, HEK-293T; conditions: human
[6] = tested on: NCI-H23; test: Antiproliferative activity against human NCI-H23 cells expressing KRAS G12C mutant assessed as relative cell viability at 30 nM incubated for 72 hrs in presence of daclolisib by CCK-8 assay; assay type: functional; conditions: read-out: Activity
[7] = tested on: MIA PaCa-2; test: Induction of apoptosis in human MIA PaCa-2 cells assessed as viable cells at 100 nM incubated for 48 hrs by Annexin V-FITC staining based flow cytometry analysis (reference value: 91.5 %); assay type: functional; conditions: read-out: Activity
[8] = tested on: MIA PaCa-2; test: Antiproliferative activity against human MIA PaCa-2 cells expressing KRAS G12C mutant assessed as relative cell viability at 30 nM incubated for 72 hrs in presence of daclolisib by CCK-8 assay; assay type: functional; conditions: read-out: Activity
[9] = tested on: NCI-H358; test: Antiproliferative activity against human NCI-H358 cells expressing KRAS G12C mutant assessed as relative cell viability at 30 nM incubated for 72 hrs in presence of selumetinib by CCK-8 assay; assay type: functional; conditions: read-out: Activity
[10] = Toxicity in ICR mouse assessed as side effects at 2 mg/kg, iv measured after 24 hrs; assay type: organism-based; conditions: in vivo
[11] = tested on: MIA PaCa-2; test: Induction of apoptosis in human MIA PaCa-2 cells assessed as late apoptotic cells at 300 nM incubated for 48 hrs by Annexin V-FITC staining based flow cytometry analysis (reference value: 5.69 %); assay type: functional
[12] = tested on: NCI-H358; test: Inhibition of colony formation in human NCI-H358 cells expressing KRAS G12C mutant assessed as reduction in cell number at 30 nM incubated for 14 days in presence of SHP099 by crystal violet staining based analysis; assay type: functional; conditions: time 14.0 day
[13] = tested on: MIA PaCa-2; test: Induction of apoptosis in human MIA PaCa-2 cells assessed as early apoptotic cells at 100 nM incubated for 48 hrs by Annexin V-FITC staining based flow cytometry analysis (reference value: 1.55 %); assay type: functional
[14] = tested on: Calu-1; test: Antiproliferative activity against human Calu-1 cells expressing KRAS G12C mutant assessed as relative cell viability at 30 nM incubated for 72 hrs in presence of MK-2206 by CCK-8 assay; assay type: functional; conditions: read-out: Activity
[15] = tested on: NCI-H358; test: Antiproliferative activity against human NCI-H358 cells expressing KRAS G12C mutant assessed as relative cell viability at 30 nM incubated for 72 hrs by CCK-8 assay; assay type: functional; conditions: read-out: Activity
[16] = tested on: NCI-H358; test: Induction of apoptosis in human NCI-H358 cells assessed as late apoptotic cells at 30 nM incubated for 48 hrs by Annexin V-FITC staining based flow cytometry analysis (reference value: 5.20 %); assay type: functional
[17] = tested on: NCI-H358; test: Antiproliferative activity against human NCI-H358 cells expressing KRAS G12C mutant assessed as inhibition of cell growth incubated for 72 hrs by CCK-8 assay; assay type: functional, cell-based; conditions: NCI-H358, 72 h
[18] = tested on: NCI-H358; test: Antiproliferative activity against human NCI-H358 cells expressing KRAS G12C mutant assessed as relative cell viability at 30 nM incubated for 72 hrs in presence of infigratinib by CCK-8 assay; assay type: functional; conditions: read-out: Activity
[19] = Cmax in ICR mouse at 30 mg/kg, ip measured after 24 hrs by LC-MS/MS analysis; assay type: ADME, organism-based; conditions: in vivo
[20] = tested on: SW837; test: Antiproliferative activity against human SW837 cells expressing KRAS G12C mutant assessed as relative cell viability at 30 nM incubated for 72 hrs in presence of daclolisib by CCK-8 assay; assay type: functional; conditions: read-out: Activity
[21] = tested on: NCI-H23; test: Antiproliferative activity against human NCI-H23 cells expressing KRAS G12C mutant assessed as relative cell viability at 30 nM incubated for 72 hrs in presence of MK-2206 by CCK-8 assay; assay type: functional; conditions: read-out: Activity
[22] = tested on: von Hippel-Lindau disease tumor suppressor/GTPase KRas (Homo sapiens), P01116+P40337 [G12C]; test: PROTAC activity at VHL/KRAS G12C mutant in human MIA PaCa-2 cells assessed as induction of protein degradation at 100 nM incubated for 1 to 8 days by Western blotting analysis; assay type: cell-based; conditions: time 1-8 day
[23] = tested on: von Hippel-Lindau disease tumor suppressor/GTPase KRas (Homo sapiens), P01116+P40337 [G12C]; test: (§1) PROTAC activity at VHL/KRAS G12C mutant in human MIA PaCa-2 cells assessed as induction of protein degradation by Western blotting analysis; assay type: cell-based
[24] = target: von Hippel-Lindau disease tumor suppressor/GTPase KRas (Homo sapiens, UniProt P01116+P40337, G12C); test: as §1; assay type: cell-based
[25] = tested on: NCI-H358; test: Induction of apoptosis in human NCI-H358 cells assessed as viable cells at 300 nM incubated for 48 hrs by Annexin V-FITC staining based flow cytometry analysis (reference value: 91.6 %); assay type: functional; conditions: read-out: Activity
[26] = tested on: NCI-H23; test: Antiproliferative activity against human NCI-H23 cells expressing KRAS G12C mutant assessed as relative cell viability at 30 nM incubated for 72 hrs by CCK-8 assay; assay type: functional; conditions: read-out: Activity
[27] = tested on: MIA PaCa-2; test: Induction of apoptosis in human MIA PaCa-2 cells assessed as early apoptotic cells at 30 nM incubated for 48 hrs by Annexin V-FITC staining based flow cytometry analysis (reference value: 1.55 %); assay type: functional
[28] = tested on: von Hippel-Lindau disease tumor suppressor/GTPase KRas (Homo sapiens), P01116+P40337 [G12C]; test: PROTAC activity at VHL/KRAS G12C mutant in human MIA PaCa-2 cells assessed as induction of protein degradation at 100 nM incubated for 48 hrs by Western blotting analysis relative to control; assay type: cell-based
[29] = tested on: MIA PaCa-2; test: Antiproliferative activity against human MIA PaCa-2 cells expressing KRAS G12C mutant assessed as relative cell viability at 30 nM incubated for 72 hrs in presence of infigratinib by CCK-8 assay; assay type: functional; conditions: read-out: Activity
[30] = tested on: NCI-H358; test: Antiproliferative activity against human NCI-H358 cells expressing KRAS G12C mutant assessed as inhibition of cell growth at 100 nM incubated for 8 days by CCK-8 assay; assay type: functional, cell-based; conditions: time 8.0 day
[31] = tested on: NCI-H358; test: Inhibition of colony formation in human NCI-H358 cells expressing KRAS G12C mutant assessed as reduction in cell number at 30 nM incubated for 14 days in presence of AZD4573 by crystal violet staining based analysis; assay type: functional; conditions: time 14.0 day
[32] = tested on: NCI-H358; test: Induction of apoptosis in human NCI-H358 cells assessed as early apoptotic cells at 300 nM incubated for 48 hrs by Annexin V-FITC staining based flow cytometry analysis (reference value: 1.60 %); assay type: functional
[33] = tested on: SW837; test: Antiproliferative activity against human SW837 cells expressing KRAS G12C mutant assessed as relative cell viability at 30 nM incubated for 72 hrs in presence of MK-2206 by CCK-8 assay; assay type: functional; conditions: read-out: Activity

Chain of von Hippel-Lindau disease tumor suppressor/GTPase KRas (P01116 whole entry G12C, stated change not applied): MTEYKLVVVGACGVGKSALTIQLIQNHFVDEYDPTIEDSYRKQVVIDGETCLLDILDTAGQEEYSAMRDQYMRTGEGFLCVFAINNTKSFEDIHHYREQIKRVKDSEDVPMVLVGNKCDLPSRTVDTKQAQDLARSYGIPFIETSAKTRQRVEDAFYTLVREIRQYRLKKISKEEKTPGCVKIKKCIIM
Chain of von Hippel-Lindau disease tumor suppressor/GTPase KRas (P40337 whole entry, stated change not applied): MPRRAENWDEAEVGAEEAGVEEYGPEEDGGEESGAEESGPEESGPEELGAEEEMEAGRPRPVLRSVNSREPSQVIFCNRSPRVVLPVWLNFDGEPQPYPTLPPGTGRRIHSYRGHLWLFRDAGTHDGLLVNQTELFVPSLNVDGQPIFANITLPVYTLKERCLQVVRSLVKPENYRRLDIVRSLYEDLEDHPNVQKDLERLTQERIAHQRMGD

In the case of C=CC(=O)N1CCN(c2nc(=O)n(-c3c(C)ccnc3C(C)C)c3nc(-c4c(F)cccc4OCC4CCN(CCCC(=O)N[C@H](C(=O)N5C[C@H](O)C[C@H]5C(=O)NCc5ccc(-c6scnc6C)cc5)C(C)(C)C)CC4)c(F)cc23)[C@@H](C)C1, the Activity [1] is reported as “inactive”, the viability at 0.03 µM [2] is reported as 0.36% and the viability at 0.03 µM [3] is reported as 0.41%. The Activity [4] was 10%, the IC50 at 72 h [5] was greater than 10000 nM and the viability at 0.03 µM [6] was 0.23%. For the same molecule, the viability at 0.1 µM [7] was 75.7%, the viability at 0.03 µM [8] was 0.17% and the viability at 0.03 µM [9] was 0.31%. The Activity [10] was “Non-Toxic”, the Activity [11] was 19.9% and the inhibition [12] was “Active”. For the same molecule, the Activity [13] was 6.73%, the viability at 0.03 µM [14] was 0.32% and the viability at 0.03 µM [15] was 0.83%. It also gave an Activity [16] of 6.13%, an IC50 [17] of 91 nM and a viability at 0.03 µM [18] of 0.38%. The Cmax [19] was 6460 ng/mL, the viability at 0.03 µM [20] was 0.24% and the viability at 0.03 µM [21] was 0.44%. The Activity [22] was “Active”, the Activity [23] was “Dose-Dependent Effect” and the DC50 [24] was 28 nM. It also gave a viability at 0.3 µM [25] of 79.6%, a viability at 0.03 µM [26] of 0.85% and an Activity [27] of 2.66%. For the same molecule, the Activity [28] was 100%, the viability at 0.03 µM [29] was 0.35% and the Activity [30] was “Active”. For the same molecule, the inhibition [31] was “Active”, the Activity [32] was 4.06% and the viability at 0.03 µM [33] was 0.34%.
